{
  "source": "patent US10828269B2",
  "about": "“Reducing muscle atrophy by administering astaxanthin” (FUJI CHEMICAL INDUSTRIES CO., LTD., priority 2004, dated 2020)",
  "assay_in_all_cases": "GeneChip gene expression in renal glomerulus",
  "assay_type_in_all_cases": "in vivo, mouse",
  "key": {"[1]": {"test_system": "Blymphoma Mo-MLV insertion region 1", "conditions": "probe 1448733_at, 0.02% in diet, 12 weeks", "procedure": "(§1) Type II diabetic female db/db mice and non-diabetic db/m were purchased from Clea Japan, Inc. Mice were bred under the conditions with a 12 hours light-dark cycle at a temperature of 21° C. to 25° C. For acclimation, mice were fed CE-2 (Clea Japan, Inc.) with free access to water for one week. The mice were divided into three groups each consisting of 8 mice (non-diabetic db/m, diabetic db/db, and astaxanthin-administered db/db) and each group was bred with feed ad libitum. Mice in astaxanthin-administered group were fed a diet in which 0.02% astaxanthin in terms of free astaxanthin was compounded with CE-2. Each group was bred for 12 weeks, and body weight, blood glucose levels, 8-OHdG levels in urine, albumin levels in urine, and kidney histopathology, were measured. Astaxanthin used here was AstaReal (registered trademark, Fuji Chemical Industry Co., Ltd.) 50F, which is oil composed of astaxanthin fatty acid ester and triglycerides and contains 5% astaxanthin in terms of free astaxanthin.\n(§2) After the period of test breeding, kidney was removed and frozen at −80° C. Using an LM200 system (Olympus Corporation), the renal glomerulus was cut from kidney of mice while keeping low temperature. tRNA of renal glomerulus was extracted using tRNA extraction regent “Isogen” (produced by Nippon Gene Co., Ltd.), and then preparation of cRNA and hybridization were performed according to the Affymetrix GeneChip Eukaryotic Small Sample Target Labeling Assay Ver. II.\n(§3) (1) Synthesis of first strand cDNA: 1 μL of total RNA solution and 1 of 5 μM T7-Oligo(dT) primer were mixed, heated at 70° C. for 6 minutes, and then cooled at 4° C. for 2 minutes. 3 μL of RT_Premix_1 (1.5 μL DEPC-treated water, 4 μL 5× First strand Buffer, 2 μL DTT (0.1 M), 1.5 μL dNTP Mix (10 mM), 1 μL RNase inhibitor (40 U/μL), and 2 μL Super-Script II (200 U/μL)) was added and reverse transcribed at 42° C. for 1 hour. The sample was heated at 70° C. for 10 minutes to inactivate Super Script II, and then cooled to 4° C. (2) Synthesis of second strand cDNA: 32.5 μl of SS_Premix_1 (91 μL DEPC-treated water, 30 μL 5× Second Strand Buffer, 3 μL dNTP (10 mM), 1 μL E. coli DNA ligase (10 U/μL); 4 μL E. coli DNA polymerase (10 U/μL), and 1 μL RNase H (2 U/μL)) was added to the first strand cDNA solution and allowed to react for 2 hours at 16° C. (3) To the resulting cDNA, was added 1 μL T4 DNA polymerase (5 U/μl) and allowed to react for 10 minutes at 16° C., and purified by ethanol precipitation. (4) In vitro transcription: To the dried double-stranded cDNA pellet, was added 10 μL of reagents (4 μL DEPC-treated water, 4 μL premixed NTPs, 1 μL 10× reaction buffer, and 1 μL 10× enzyme mix), and allowed to react at 37° C. in a water bath for 6 hours. (5) First cycle cRNA was purified using the RNeasy Mini Kit in accordance with the protocol in the handbook (QIAGEN). (6) Subsequently, for the amplification and labeling, the cRNA sample was mixed with random primers (0.2 μg/μL), treated at 70° C. for 10 minutes, cooled on ice for 2 minutes, 5 μL of RT_Premix_2 (5× First Strand Buffer, DTT (0.1 M), dNTP mix (10 mM), RNase inhibitor (40 U/μL), and SuperScript II (200 U/μL) was added, and allowed to react at 42° C. for 1 hour. (7) Next, Second Sstrand cDNA synthesis was carried out by adding 5 μM T7-Oligo(dT) promoter treating at 70° C. for 6 minutes, cooling at 4° C., and adding 62 μL of SS_Premix_2 (43 μL it DEPC-treated water, 15 μL 5× Second Strand Buffer, 1.5 μL dNTP mix (10 mM), and 2 μL E. coli DNA polymerase (10 U/μL)). (8) To the resulting cDNA, was treated added 1 μL of T4 DNA polymerase (5 U/μL), allowed to react at 16° C. for 10 minutes, and purified by ethanol precipitation. […]"}, "[2]": {"test_system": "C1q and tumor necrosis factor related protein 5", "conditions": "probe 1424762_at, 0.02% in diet, 12 weeks", "procedure": "as §1, §2, §3"}, "C1q related factor": {"test_system": "C1q related factor", "conditions": "probe 1422777_at, 0.02% in diet, 12 weeks", "procedure": "as §1, §2, §3"}, "caspase 7": {"test_system": "caspase 7", "conditions": "probe 1434099_at, 0.02% in diet, 12 weeks", "procedure": "as §1, §2, §3"}, "catalase": {"test_system": "catalase", "conditions": "probe 1416430_at, 0.02% in diet, 12 weeks", "procedure": "as §1, §2, §3"}, "[3]": {"test_system": "collagen, type XXV, alpha 1", "conditions": "probe 1438655_a_at, 0.02% in diet, 12 weeks", "procedure": "as §1, §2, §3"}, "erythropoietin receptor": {"test_system": "erythropoietin receptor", "conditions": "probe 1423344_at, 0.02% in diet, 12 weeks", "procedure": "as §1, §2, §3"}, "[4]": {"test_system": "macrophage scavenger receptor 1", "conditions": "probe 1448061_at, 0.02% in diet, 12 weeks", "procedure": "as §1, §2, §3"}, "[5]": {"test_system": "matrix metalloproteinase 8", "conditions": "probe 1449366_at, 0.02% in diet, 12 weeks", "procedure": "as §1, §2, §3"}, "peroxiredoxin 1": {"test_system": "peroxiredoxin 1", "conditions": "probe 1436691_x_at, 0.02% in diet, 12 weeks", "procedure": "as §1, §2, §3"}, "[6]": {"test_system": "procollagen, type IV, alpha 5", "conditions": "probe 1425476_at, 0.02% in diet, 12 weeks", "procedure": "as §1, §2, §3"}, "secreted posphoprotein 1": {"test_system": "secreted posphoprotein 1", "conditions": "probe 1449254_at, 0.02% in diet, 12 weeks", "procedure": "as §1, §2, §3"}, "[7]": {"test_system": "transforming growth factor beta 1 induced transcript 4", "conditions": "0.02% in diet, 12 weeks", "procedure": "as §1, §2, §3"}},
  "data": [
    {"compound": "CC1=C(/C=C/C(C)=C/C=C/C(C)=C/C=C/C=C(C)/C=C/C=C(C)/C=C/C2=C(C)C(=O)C(O)CC2(C)C)C(C)(C)CC(O)C1=O", "note": "(stereo not drawn) [astaxanthin, 3,3′-dihydroxy-β,β-carotene-4,4′-dione]", "values": [
      {"measurement": "gene expression relative ratio db/db(Ax):db/db", "setting": "[1]", "value": 0.76},
      {"measurement": "gene expression relative ratio db/db(Ax):db/m", "setting": "[1]", "value": 8.00},
      {"measurement": "gene expression intensity ratio db/db(Ax):db/db", "setting": "[2]", "value": 2.00},
      {"measurement": "gene expression intensity ratio db/db(Ax):db/m", "setting": "[2]", "value": 1.23},
      {"measurement": "gene expression intensity ratio db/db(Ax):db/db", "setting": "C1q related factor", "value": 1.32},
      {"measurement": "gene expression intensity ratio db/db(Ax):db/m", "setting": "C1q related factor", "value": 0.71},
      {"measurement": "gene expression relative ratio db/db(Ax):db/db", "setting": "caspase 7", "value": 0.87},
      {"measurement": "gene expression relative ratio db/db(Ax):db/m", "setting": "caspase 7", "value": 68.59},
      {"measurement": "gene expression relative ratio db/db(Ax):db/db", "setting": "catalase", "value": 0.33},
      {"measurement": "gene expression relative ratio db/db(Ax):db/m", "setting": "catalase", "value": 8.57},
      {"measurement": "gene expression intensity ratio db/db(Ax):db/db", "setting": "[3]", "value": 0.19},
      {"measurement": "gene expression intensity ratio db/db(Ax):db/m", "setting": "[3]", "value": 0.87},
      {"measurement": "gene expression relative ratio db/db(Ax):db/db", "setting": "erythropoietin receptor", "value": 2.30},
      {"measurement": "gene expression relative ratio db/db(Ax):db/m", "setting": "erythropoietin receptor", "value": 0.71},
      {"measurement": "gene expression intensity ratio db/db(Ax):db/db", "setting": "[4]", "value": 0.25},
      {"measurement": "gene expression intensity ratio db/db(Ax):db/m", "setting": "[4]", "value": 1.32},
      {"measurement": "gene expression intensity ratio db/db(Ax):db/db", "setting": "[5]", "value": 2.00},
      {"measurement": "gene expression intensity ratio db/db(Ax):db/m", "setting": "[5]", "value": 0.62},
      {"measurement": "gene expression relative ratio db/db(Ax):db/db", "setting": "peroxiredoxin 1", "value": 0.14},
      {"measurement": "gene expression relative ratio db/db(Ax):db/m", "setting": "peroxiredoxin 1", "value": 9.19},
      {"measurement": "gene expression intensity ratio db/db(Ax):db/db", "setting": "[6]", "value": 0.50},
      {"measurement": "gene expression intensity ratio db/db(Ax):db/m", "setting": "[6]", "value": 2.00},
      {"measurement": "gene expression relative ratio db/db(Ax):db/db", "setting": "secreted posphoprotein 1", "value": 0.13},
      {"measurement": "gene expression relative ratio db/db(Ax):db/m", "setting": "secreted posphoprotein 1", "value": 0.66},
      {"measurement": "gene expression relative ratio db/db(Ax):db/db", "setting": "[7]; probe 1425742_a_at", "value": 0.33},
      {"measurement": "gene expression relative ratio db/db(Ax):db/m", "setting": "[7]; probe 1425742_a_at", "value": 1.41},
      {"measurement": "gene expression relative ratio db/db(Ax):db/db", "setting": "[7]; probe 1454971_x_at", "value": 0.57},
      {"measurement": "gene expression relative ratio db/db(Ax):db/m", "setting": "[7]; probe 1454971_x_at", "value": 3.25}
    ]}
  ]
}
